# From patent US11135252B2, “Probiotic therapies for developmental disorders and other neurological disorders” (Baylor College of Medicine, priority 2016, dated 2021)
# Tests used:
# [1] = system: GF mice; test: Three-chamber social test in germ-free mice treated with L. reuteri; assay type: in vivo
# Protocol: C57Bl6/J mice were obtained from Jackson Laboratories (#000-664) and were kept on a 12 h light/dark cycle and had access to food and water ad libitum. Females were placed on either a regular diet (RD) consisting of 13.4% kcal from fat, 30% kcal from protein, and 57% kcal from carbohydrates (Lab Diets, #5001) or high fat diet (HFD) consisting of 60% kcal from fat, 20% kcal from protein, and […] kcal from carbohydrates (Research Diets, #D12492). Maternal weight was measured weekly. Maternal total and fat mass were measured using an mq7.5 Minispec NMR body composition analyzer. After eight weeks on diet, females were paired with C57B16/J adult males to produce subject offspring. Resulting offspring were weaned at three weeks of age and all placed on RD, regardless of maternal diet (MRD or MHFD). Germ-free mice (C57B16/J) were maintained in a flexible isolator fed with HEPA-filtered air and provided with irradiated food and water. Germ-free offspring were weaned at four weeks of age. All behavioral tests were performed on 7-12-week-old male mice.
# Crawley's three-chamber test for sociability and preference for social novelty was performed as described (Silverman et al., 2010). In brief, the mouse first experienced a 10-minute period of habituation during which it was allowed to freely explore a 60×40×23 cm Plexiglass arena divided into three equally sized, interconnected chambers (Left, Center, Right). Sociability was measured during a second ten-minute period in which the subject could interact either with an empty wire cup (Empty) or a wire cup containing an age and sex-matched stranger conspecific (Mouse 1). Time spent interacting (sniffing, crawling upon) with either the empty cup or the stranger mouse contained in the other cup as well as time spent in each chamber was recorded using the AnyMaze software, by independent observers. […] Time spent in each chamber as well as time spent interacting with either Mouse 1 or Mouse 2 was recorded using the automated AnyMaze software by independent observers. […]
# [2] = system: MRD offspring; test: Three-chamber social test in MRD offspring; assay type: in vivo, mice; settings: in drinking water
# Protocol: Crawley's three-chamber test for sociability and preference for social novelty was performed as described (Silverman et al., 2010). In brief, the mouse first experienced a 10-minute period of habituation during which it was allowed to freely explore a 60×40×23 cm Plexiglass arena divided into three equally sized, interconnected chambers (Left, Center, Right). Sociability was measured during a second ten-minute period in which the subject could interact either with an empty wire cup (Empty) or a wire cup containing an age and sex-matched stranger conspecific (Mouse 1). Time spent interacting (sniffing, crawling upon) with either the empty cup or the stranger mouse contained in the other cup as well as time spent in each chamber was recorded using the AnyMaze software, by independent observers. Empty cup placement in the Left or Right chamber during the Sociability period was counterbalanced between trials. Finally, preference for social novelty was assayed by introducing a second stranger mouse (Mouse 2) into the previously the empty wire cup. Time spent in each chamber as well as time spent interacting with either Mouse 1 or Mouse 2 was recorded using the automated AnyMaze software by independent observers. Lactobacillus reuteri MM4-1A (ATCC-PTA-6475) and Lactobacillus johnsonii (ATCC 33200) were cultured anaerobically in MRS broth in a 90% N2, 5% CO2, 5% H2 environment. L. reuteri was heat-killed by keeping the bacteria at 80° C. for 20 minutes (Wang et al., 2010). Bacterial viability was assessed by plating and the efficacy of the heat-kill procedure was confirmed by the absence of colony growth following plating. Cultures were centrifuged, washed, and resuspended in anaerobic solution (PBS) and frozen at −80° C. until use. PBS, live or heat-killed L. reuteri were added to the drinking water, which was changed daily to minimize dosage variability. Whereas the experimental group received live bacteria, one control group received identically prepared cultures of heat-killed bacteria. A second group of control mice received water treated with PBS alone. […]
substance,measurement,setting,value
Lactobacillus reuteri MM4-1A (ATCC-PTA-6475) [L. reuteri],sociability,[1]; L. reuteri in drinking water,reverses the deficient sociability
same,social novelty,[1]; L. reuteri in drinking water,reverses
same,social behavior deficits,[1]; L. reuteri treatment,sufficient to restore the social behavior deficits
same,"sociability (chamber containing a mouse, FIG. 16A)",[2],preferred the chamber containing a mouse
same,social behavior,[2],did not change the social behavior
same,"social novelty (chamber containing Mouse 2, FIG. 16B)",[2],preferred
